Laboratory results reported in patent US12336986B2, “Treatment and prevention of ocular neurodegenerative disorder” (The Jackson Laboratory, priority 2015, dated 2025).

Key:
[1] = test system: sciatic nerve axons; conditions: blocking NAMPT; cited from earlier work
[2] = test system: zebrafish; conditions: two-photon-laser axotomy; cited from earlier work
[3] = test system: D2 mice; conditions: topical administration; cited from earlier work
[4] = test system: ganglion cell layer cells (GCL cells); assay: Whole retina explant culture (axotomy culture model), DAPI nuclei; assay type: cell-based, mouse
Excerpt: Mice were euthanized, eyes enucleated and placed immediately into ice-cold HBSS. Retinas were dissected from the eyes in HBSS on ice, flat-mounted with the ganglion cell layer up on a cell culture insert (Millipore), and submerged in tissue culture media containing Neurobasal-A, 1% penicillin-streptomycin (10000 U/mL), 1% glutamine (100×), 1% N-2 (100×) and 1% B-27 (50×) (all ThermoFisher Scientific).
For drug treated retinas tissue culture media was made as above and supplemented with one of the following compounds (all Sigma unless otherwise): β-NAD, NAM (PanReac AppliChem), β-NMN. Retinas were incubated in 6-well plates at 37° C. and 4% CO2 for 5 days before being fixed in 4% PFA and stained with DAPI. (For untreated “Day 0” controls, retinas were dissected and placed straight into 4% PFA.) Retinas were imaged on a Zeiss AxioObserver.

[5] = PQQ tolerability in mice; assay type: in vivo, mouse
[6] = test system: dorsal root ganglion; conditions: U.S. Pat. No. 7,776,326; cited from earlier work
[7] = survey of 6000 patients on high doses; cited from earlier work
[8] = axotomized retinas in culture, 5 days

For `O=C(/C=C/c1cccnc1)NCCCCC1CCN(C(=O)c2ccccc2)CC1` [FK866], the “axon degeneration following axonal injury” value [1] is listed as “potentially inhibits this axon degeneration” and the axon degeneration [2] is listed as “potently delayed axon degeneration”.
In the case of `CC(C)OC(=O)CCC/C=C\C[C@@H]1[C@@H](CC[C@@H](O)CCc2ccccc2)[C@H](O)C[C@@H]1O` [Latanoprost], the IOP [3] is listed as “lowers IOP” and the “risk of developing neurodegeneration” value [3] is listed as “reduces the risk of developing neurodegeneration”.
In the case of `O=C(O)c1cc(C(=O)O)c2c(n1)C(=O)C(=O)c1cc(C(=O)O)[nH]c1-2` [PQQ, pyrroloquinoline quinone], the “nuclear diameter shrinkage (DAPI-labeled nuclei)” value ([4]; axotomized D2 retinas in culture, 5 days post-axotomy, NAM 100 mM and 500 mM) is reported as “prevents”, the “ganglion cell layer cell death / cell density” value [4, 8] is reported as “prevents” and the “protective effect in retina tissue culture” value [4, 8] is reported as “protective in retina tissue culture”. For the same compound, the tolerated dose [5] was ≥ 2,000 mg/kg/day.
In the case of `CC12CC3CC(C)(C1)CC(N)(C3)C2` [memantine], the IOP [3] is given as “lowers IOP” and the “risk of developing neurodegeneration” value [3] is given as “reduces the risk of developing neurodegeneration”.
For `O=C(O)c1cccnc1` [nicotinic acid], the “axonal degeneration after axotomy” value [6] is given as “did not work to diminish axonal degeneration” and the “cases of jaundice reported” value [7] is given as 3.
In the case of `CC(C)(C)NC[C@H](O)COc1nsnc1N1CCOCC1` [timolol], the IOP [3] is given as “lowers IOP” and the “risk of developing neurodegeneration” value [3] is given as “reduces the risk of developing neurodegeneration”.
In the case of `NC(=O)c1ccc[n+]([C@@H]2O[C@H](COP(=O)([O-])O)[C@@H](O)[C@H]2O)c1` [β-NMN, nicotinamide mononucleotide], the “protective effect in retina tissue culture” value [4, 8] is reported as “significant protective effects”.
